Laboratory results taken from US20080279961A1, “TELOMERE TARGETING AGENTS AS STEM CELLS DIRECTED TREATMENTS” (priority 2007, published 2008).
“Also recorded” adds a separate entry of the source.

Experiments:
R1 prostate cancer cells = assay: side population analysis; assay type: cell-based
Excerpt: In one embodiment of the invention, cancer stem cells have shorter telomeres than other cancer cells (FIG. 7). Side population analysis was done to distinguish between cancer stem cells in R1 prostate cancer cells and […]. A primitive CD34^low/neg stem cell population has been defined in normal bone marrow, which has the unique capacity to efflux lipophilic dyes such as Hoechst 33342 as a result of high levels of expression of P-glycoprotein (MDRa/ABCB1) transporter and BCRP (breast cancer resistance protein, ABCG2). […] R1 is the parental prostate cancer cell line with a SP of 0.36% of cells of the total population (100%). […] Subclones of the R1 chemosensitive prostate cancer cell line that are resistant to the clinically used cytotoxic agents mitoxantrone and docetaxel, show a much expanded SP of 45% and 83% of cells respectively. In fact docetaxel resistant R1 cells are almost all stem cell like cells.

[1] = tolerability in xenograft studies (body weight, deaths, MTD)
Protocol: For the first in vivo experiment, tumor fragments (5×5 mm) from untreated donor animals were implanted subcutaneously into both flanks of recipient mice. Treatment was initiated 6 days after transplantation (=day 0, median tumor volume of ˜70 mm^3). Animals were randomized into groups following Lindner's randomization tables and treated by oral gavage with 5 mg/kg/d RHPS4 or vehicle (phosphate buffered saline) respectively (n=5-8 animals per group). […] Drug administration was repeated twice weekly for 8 times (Q3dx8) after randomization. Tumor growth was followed twice weekly by serial caliper measurement, body weights were recorded, and tumor volumes were calculated using the standard formula (length×width^2)/2, where length is the largest dimension and width the smallest dimension perpendicular to the length (Alley et al., 2004; Geran et al., 1972). The median relative tumor volume was plotted against time. Relative tumor volumes were calculated for each single tumor by dividing the tumor volume on day X by that on day 0 (time of randomization). Growth curves were analyzed in terms of tumor inhibition (treated/control, T/C, calculated as median tumor weight of treated divided by median tumor weight of control animals times 100). Statistical data analysis was done using non-parametrical Wilcoxon Mann-Whitney statistics. Median relative tumor volumes of each treatment group were compared with those of the vehicle control groups. P values less than 0.05 were considered statistically significant. SPSS 2000, SYSTAT version 10 software was used.
To conduct combination treatment with Paclitaxel, after 4 serial propagations of RHPS4 treated tumor tissue in nude mice (FIG. 1), RHPS4 was combined with Paclitaxel. Single agent Paclitaxel was given at 20 mg/kg i.v. on days 1 and 15. In combination with RHPS4 (given at 5 mg/kg p.o. twice weekly), only a single dose of Paclitaxel (20 mg/kg i.v.) was administered on day 1. Tumor growth parameters and body weight were assessed as described above.

UXF1138L xenografts [2] = assay: tumor growth inhibition of subcutaneous xenografts; assay type: in vivo, nude mice
UXF1138L xenografts [3] = conditions: mouse, in vivo; cited from earlier work

With `COc1ccc2c3c([nH]c2c1)[C@H](CC(C)C)N1C(=O)[C@H](CCC(=O)OC(C)(C)C)NC(=O)[C@@H]1C3` [Ko143] the “effect on side population (SP)” value (R1 prostate cancer cells) was “abolishes the SP”.

For `CC(=O)O[C@H]1C(=O)[C@@]2(C)[C@H]([C@H](OC(=O)c3ccccc3)[C@]3(O)C[C@H](OC(=O)[C@H](O)[C@@H](NC(=O)c4ccccc4)c4ccccc4)C(C)=C1C3(C)C)[C@]1(OC(C)=O)CO[C@@H]1C[C@@H]2O` [Paclitaxel, reference compound], the “Deaths [n/n], drug related death per mice per group” value ([1]; Passage #4) was 0/6, the “BWC, maximal median body weight change” value ([1]; mouse, in vivo) was “+6%” and the “opt. Test/Control [%]” value (UXF1138L xenografts [2]; Passage #4, RHPS4 5 mg/kg p.o. twice weekly, Paclitaxel 20 mg/kg i.v.) was 8%. The “CR, complete remission” value (UXF1138L xenografts [2]; Passage #4, tumors per group) was 2/12, the “P, progression” value (UXF1138L xenografts [2]; Passage #4, tumors per group) was 3/12 and the “PR, partial regression” value (UXF1138L xenografts [2]; Passage #4, tumors per group) was 7/12. For the same molecule, the “antitumor response in words” value (UXF1138L xenografts [2]; Passage #4 UXF1138L xenografts) was “has single agent activity; also recorded: transient remissions; also recorded: Minor remissions”.

In the case of `COc1cccc2c1C(=O)c1c(O)c3c(c(O)c1C2=O)C[C@@](O)(C(=O)CO)C[C@@H]3O[C@H]1C[C@H](N)[C@H](O)[C@H](C)O1` [doxorubicin], the “response of UXF1138L xenograft to standard chemotherapy” value (UXF1138L xenografts [3]) is listed as “resistant”.

In the case of `O=C1c2c(O)ccc(O)c2C(=O)c2c(NCCNCCO)ccc(NCCNCCO)c21` [mitoxantrone], the “response of UXF1138L xenograft to standard chemotherapy” value (UXF1138L xenografts [3]) is listed as “resistant”.
